Values quoted from earlier work as cited in article PMC7855261 (Cell chemical biology, 2020).

Test system: r(CUG)12-MBNL1 complex
Conditions: ref Parkesh et al., 2012; Rzuczek et al., 2015

## Nc1ccc2nc(-c3ccc(-c4nc5ccc(N)cc5[nH]4)cc3)[nH]c2c1 [Compound 3, 2,2′-p-Phenylene-bis(5-aminobenzimidazole)]
  Bind r(CUG)^exp and inhibit formation of the r(CUG)^exp-MBNL1 complex: inhibit formation of the r(CUG)^exp-MBNL1 complex
